Laboratory results taken from patent US20110091473A1, “NOVEL ANTIBODY THERAPIES” (GENMAB A/S, priority 2007, published 2011).

Assay: Cholesterol blood level of hypercholesterolemic patients treated with atorvastatin
Format: in vivo, human
Conditions: day 3 vs day 0, single dose 80 mg, five patients
Experimental: Further, the influence of cholesterol depletion in freshly isolated B cells of hypercholesterolemic patients treated with atorvastatin was studied. A small exploratory clinical trial was performed in which hypercholesterolemic patients (n=5) were treated with a single dose of 80 mg atorvastatin (taken in the evening) in order to reduce their cholesterol blood level and determine the effect on CD20 mAb binding on isolated B cells using flow cytometry. Approval of the study was obtained from the ethics review board of the Warsaw University Medical Center. Informed consent was provided according to the Declaration of Helsinki. […]
The cholesterol blood level was measured using automated dry chemistry system (Vitroz 250 System Chemistry (Ortho-Clinical Diagnostics, Johnson&Johnson, Piscataway, N.J.). A starting cholesterol blood level of […] was required for patients to enroll in the clinical trial. At time of recruitment, patient I.D.#4 presented with a cholesterol blood concentration […], and as such was considered hypercholesterolemic. At time of recruitment the blood cholesterol level of patient I.D.#5 turned out to be below this cut off value, and thus it can be argued whether this patient should be considered hypercholesterolemic. […] Cholesterol blood levels were subsequently measured on day 0 (pretreatment) and day 3 after treatment. […]

CC(C)c1c(C(=O)Nc2ccccc2)c(-c2ccccc2)c(-c2ccc(F)cc2)n1CC[C@@H](O)C[C@@H](O)CC(=O)O [atorvastatin]
reduction of average cholesterol blood concentration: 17%
